Reference: patent publication US10357507B2, “Use of ginsenoside M1 for inhibiting renal fibrosis” (priority 2014, dated 2019)

Assays:
Assay type in all cases: in vivo, C57BL/6 mice
CD3+ T cells = assay: Immunohistochemical staining of renal section for CD3+ (T cell infiltration) in UUO model; settings: UUO mice; 30 mg/kg daily i.p.
Procedure: (§1) Male 8-week-old C57BL/6 mice were purchased form National Laboratory Animal Breeding and Research Center (Taipei, Taiwan) and maintained at the animal center of the National Defense Medical Center (Taipei, Taiwan). All animal experiments were performed with the approval of the Institutional Animal Care and Use Committee of The National Defense Medical Center, Taiwan, and were consistent with the National Institutes of Health Guide for the Care and Use of Laboratory Animals.
(§2) Mice were first anesthetized with sodium pentobarbital (50 mg/kg, i.p.). After a left flank incision was taken, the left ureter was exposed, ligated with 6-0 silk sutures at two points, and cut between the two ligatures. Lastly, the peritoneal membrane and skin were sutured. Sham surgery was performed as control by following all steps of UUO-procedure except ligation and cut of ureter. (Xiao et al. Adenosine A2A receptor: a target for regulating renal interstitial fibrosis in obstructive nephropathy, PLoS One. 2013 Apr. 9; 8 (4):e60173).
(§3) Briefly, all mice received preoperative analgesia (subcutaneous injection of […] buprenorphin (Temgesic, Shering-Plough)) and the right ureter was subsequently ligated with 6.0 silk through a small abdominal incision under 2.0% isoflurane-induced anesthesia. […]

bone marrow cells = assay: Stem cells and hematopoietic stem cell activation in bone marrow cells by flow cytometry in UUO model; settings: within three groups (sham, disease control, LCHK168)
Procedure: as §1, §2, §3

α-SMA = assay: Immunohistochemical staining of renal section for α-SMA in UUO model; settings: UUO mice; 30 mg/kg daily i.p.
Procedure: as §1, §2, §3

TNF-α = assay: ELISA of TNF-α in pelvis urine in UUO model
Procedure: as §1
as §2, with “(4):e60173). […]” for “(4):e60173).”
(§4) Urine samples are collected from calyx and pelvis by 29G insulin syringe. […] MCP-1, TNF-α, and IL-1β are then detected by ELISA following instruction manual (eBioscience and R&D). […]

UUO kidney = assay: Renal histopathology evaluation by H&E staining in UUO model; settings: 30 mg/kg daily i.p.
Procedure: as §1, §2
Briefly, all mice received preoperative analgesia (subcutaneous injection of […] buprenorphin (Temgesic, Shering-Plough)) and the right ureter was subsequently ligated with 6.0 silk through a small abdominal incision under 2.0% isoflurane-induced anesthesia. The abdomen was closed in two layers and mice were allowed to recover from surgery for 12 hours at 28° C. in a ventilated stove. Mice were sacrificed 7 or 14 days after surgery (Pulskens, et al. Nlrp3 prevents early renal interstitial edema and vascular permeability in unilateral ureteral obstruction, PLoS One. 2014 Jan. 15; 9 (1):e85775).
Ginsenoside M1, 20-O-β-D-glucopyranosyl-20(S)-protopanaxadiol (named LCHK168 below), was prepared by methods known in the art, such as those described in Taiwan Patent Application No. 094116005 (I280982) and U.S. Pat. No. 7,932,057. LCHK168 was dissolved in 3% cremophore (Sigma-Aldrich). Starting from one day before UUO operation, mice were given a daily dose of LCHK168 (30 mg/kg) by intraperitoneal injection till sacrifice.
Paraffin-embedded kidney tissues were sectioned and stained with Masson's trichrome and hematoxylin and eosin (H&E) using standard protocols. For histopathology, the tissues were fixed in 10% buffered formalin and embedded in paraffin, and then sections (3 μm) were prepared and stained with hematoxylin and eosin (H&E).
Sections all are examed after mounting. The methods of semi-quantitative analysis are according to the degree of inflammation and fibrosis on renal tubulointerstitial whereas and randomly selected 20 fields randomly for scoring. […]

IL-1β = assay: ELISA of IL-1β in pelvis urine in UUO model
Procedure: as §1
as §2, with “(4):e60173). […]” for “(4):e60173).”
as §4

[1] = test system: proliferating cell nuclear antigen (PCNA); assay: Immunohistochemical staining of renal section for PCNA in UUO model; settings: UUO mice; 30 mg/kg daily i.p.
Procedure: as §1, §2, §3

NF-κB = assay: Immunohistochemical staining of renal section for NF-κB in UUO model; settings: UUO mice; 30 mg/kg daily i.p.
Procedure: as §1, §2, §3

splenocytes = assay: B cells and T cells activation in splenocytes by flow cytometry in UUO model; settings: within three groups (sham, disease control, LCHK168)
Procedure: as §1, §2, §3

collagen IV = assay: Immunohistochemical staining of renal section for collagen IV in UUO model; settings: UUO mice; 30 mg/kg daily i.p.
Procedure: as §1, §2, §3

MCP-1 = assay: ELISA of MCP-1 in pelvis urine in UUO model
Procedure: as §1
as §2, with “(4):e60173). […]” for “(4):e60173).”
as §4

[2] = test system: fibrosis tissue in the UUO interstitial area; assay: Masson's trichrome staining of renal section in UUO model; settings: UUO mice; 30 mg/kg daily i.p.
Procedure: as §1, §2, §3

[3] = test system: F4/80+ monocytes/macrophages; assay: Immunohistochemical staining of renal section for F4/80 (macrophage infiltration) in UUO model; settings: UUO mice; 30 mg/kg daily i.p.
Procedure: as §1, §2, §3

[4] = test system: apoptotic cells in UUO renal interstitial area; assay: TUNEL staining of renal section for apoptotic cells in UUO model; settings: UUO mice; 30 mg/kg daily i.p.
Procedure: as §1, §2, §3

collagen III = assay: Immunohistochemical staining of renal section for collagen III in UUO model; settings: UUO mice; 30 mg/kg daily i.p.
Procedure: as §1, §2, §3

[5] = day 7, compare to normal control group
[6] = 7 days of UUO, vs disease control mice

CC(C)=CCC[C@](C)(O[C@@H]1O[C@H](CO)[C@@H](O)[C@H](O)[C@H]1O)[C@H]1CC[C@]2(C)[C@@H]1[C@H](O)C[C@@H]1[C@@]3(C)CC[C@H](O)C(C)(C)[C@@H]3CC[C@]12C [LCHK168, 20-O-β-D-glucopyranosyl-20(S)-protopanaxadiol]
expression of CD3+ (T cells) in renal section (CD3+ T cells): decreased | percentage of CD34+ (stem cell) cells in bone marrow cells (bone marrow cells): no significant change | percentage of Stem-cell antigen-1-positive cells (hematopoietic stem cell) in bone marrow cells (bone marrow cells): no significant change | α-SMA expression in UUO interstitial area (α-SMA): decreased | TNF-α in renal pelvis urine (TNF-α; [5]): higher | TNF-α in renal pelvis urine (TNF-α; day 14, compare to UUO group): significant decreased | mononuclear leukocyte infiltration in the interstitial area (H&E) (UUO kidney; [6]): inhibited | tubular dilation in the interstitial area (H&E) (UUO kidney; [6]): inhibited | fibrosis (H&E) (UUO kidney; 14 days of UUO): significantly inhibited | tubular atrophy (H&E) (UUO kidney; 14 days of UUO): significantly inhibited | IL-1β in renal pelvis urine (IL-1β; [5]): higher | IL-1β in renal pelvis urine (IL-1β; day 14, compare to UUO group): significant decreased | PCNA expression in renal section [1]: decrease | NF-κB expression in renal section (NF-κB): inhibited | percentage of CD3+CD69+ cells in splenocytes (splenocytes): no significant change | percentage of CD19+CD69+ cells in splenocytes (splenocytes): no significant change | collagen IV expression in UUO interstitial area (collagen IV): decreased | MCP-1 in renal pelvis urine (MCP-1; [5]): higher | MCP-1 in renal pelvis urine (MCP-1; day 14, compare to UUO group): significant decreased | fibrosis tissue in the UUO interstitial area (Masson's trichrom staining) [2]: decreased | expression of F4/80 (macrophage) in renal section [3]: decreased | apoptotic cells (TUNNEL staining) in UUO renal interstitial area [4]: decrease | collagen III expression in UUO interstitial area (collagen III): decreased
